Columns and labels:
Format in all cases: ADME
Parameters in all cases: dose 2 uM
Settings in all cases: 2 µM
Diguanylate cyclase = biological target: T1, Diguanylate cyclase (Collinsella aerofaciens, UniProt A4EB91); test: (§1) The drug is tested on Collinsella aerofaciens strain: ATCC25986 for biotransformation. The drug concentrations were measured before and after a 12-h incubation by liquid-chromatography-coupled mass spectrometry (LC–MS)
T1 sequence (A4EB91 whole entry): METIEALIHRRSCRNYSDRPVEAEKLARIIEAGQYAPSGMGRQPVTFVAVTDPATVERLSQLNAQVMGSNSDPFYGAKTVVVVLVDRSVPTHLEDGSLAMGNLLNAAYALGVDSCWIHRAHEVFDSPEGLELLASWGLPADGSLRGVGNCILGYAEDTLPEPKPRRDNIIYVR

Flavodoxin = biological target: T2, Flavodoxin (Collinsella aerofaciens, UniProt A4ED08); test: as §1
T2 sequence (A4ED08 whole entry): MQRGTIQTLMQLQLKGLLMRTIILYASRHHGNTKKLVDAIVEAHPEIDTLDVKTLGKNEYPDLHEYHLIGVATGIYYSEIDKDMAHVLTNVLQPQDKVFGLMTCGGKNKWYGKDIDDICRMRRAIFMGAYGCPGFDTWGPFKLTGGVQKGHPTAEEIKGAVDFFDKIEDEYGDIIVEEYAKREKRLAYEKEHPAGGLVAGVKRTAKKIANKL

GDSL-like protein [1] = biological target: T3, GDSL-like protein (Collinsella aerofaciens, UniProt A4E7D0); test: as §1
T3 sequence (A4E7D0 whole entry): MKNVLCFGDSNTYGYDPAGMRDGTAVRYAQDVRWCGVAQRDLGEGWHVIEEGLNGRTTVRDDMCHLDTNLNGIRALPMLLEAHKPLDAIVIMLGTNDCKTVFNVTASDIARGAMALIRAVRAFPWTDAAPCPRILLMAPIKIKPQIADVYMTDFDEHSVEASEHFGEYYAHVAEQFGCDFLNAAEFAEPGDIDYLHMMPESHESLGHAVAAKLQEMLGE

GDSL-like protein [2] = biological target: T4, GDSL-like protein (Collinsella aerofaciens, UniProt A4E8S4); test: as §1
T4 sequence (A4E8S4 whole entry): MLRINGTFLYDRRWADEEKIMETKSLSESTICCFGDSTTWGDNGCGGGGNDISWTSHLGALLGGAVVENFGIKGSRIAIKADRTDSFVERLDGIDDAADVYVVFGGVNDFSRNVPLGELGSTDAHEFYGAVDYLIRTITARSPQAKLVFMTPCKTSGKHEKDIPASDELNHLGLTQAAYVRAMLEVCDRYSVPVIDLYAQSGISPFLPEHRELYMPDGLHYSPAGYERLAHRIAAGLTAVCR

[3] = biological target: T5, Pyridine nucleotide-disulfide oxidoreductase (Collinsella aerofaciens, UniProt A4EBM5); test: as §1
T5 sequence (A4EBM5 whole entry): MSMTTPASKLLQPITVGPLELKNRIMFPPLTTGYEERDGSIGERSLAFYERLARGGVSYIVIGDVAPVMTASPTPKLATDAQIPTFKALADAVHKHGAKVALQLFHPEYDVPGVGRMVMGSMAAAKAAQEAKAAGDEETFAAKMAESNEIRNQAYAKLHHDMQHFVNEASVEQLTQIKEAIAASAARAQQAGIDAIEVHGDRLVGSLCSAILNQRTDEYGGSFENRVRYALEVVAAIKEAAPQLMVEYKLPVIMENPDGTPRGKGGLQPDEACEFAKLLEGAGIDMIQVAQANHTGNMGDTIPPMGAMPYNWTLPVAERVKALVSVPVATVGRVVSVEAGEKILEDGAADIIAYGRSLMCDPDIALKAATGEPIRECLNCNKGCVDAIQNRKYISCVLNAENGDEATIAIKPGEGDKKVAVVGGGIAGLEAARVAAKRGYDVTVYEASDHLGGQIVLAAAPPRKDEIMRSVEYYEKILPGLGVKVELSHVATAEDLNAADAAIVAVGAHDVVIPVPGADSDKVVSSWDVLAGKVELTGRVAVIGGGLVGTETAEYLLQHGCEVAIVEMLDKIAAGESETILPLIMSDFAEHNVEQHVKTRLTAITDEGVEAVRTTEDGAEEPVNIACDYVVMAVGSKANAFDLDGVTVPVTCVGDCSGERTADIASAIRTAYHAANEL

[4] = biological target: T6, Nitroreductase domain-containing protein (Phocaeicola dorei, UniProt B6VU18); test: (§2) The drug is tested on Bacteroides dorei strain: DSM17855 for biotransformation. The drug concentrations were measured before and after a 12-h incubation by liquid-chromatography-coupled mass spectrometry (LC–MS)
T6 sequence (B6VU18 whole entry): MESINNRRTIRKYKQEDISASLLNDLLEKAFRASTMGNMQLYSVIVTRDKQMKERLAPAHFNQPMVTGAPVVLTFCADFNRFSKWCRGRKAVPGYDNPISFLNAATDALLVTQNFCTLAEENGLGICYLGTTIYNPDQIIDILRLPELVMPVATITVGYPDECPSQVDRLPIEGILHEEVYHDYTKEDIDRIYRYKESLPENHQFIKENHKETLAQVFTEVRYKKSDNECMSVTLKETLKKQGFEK

[5] = biological target: T7, SGNH hydrolase-type esterase domain-containing protein (Phocaeicola dorei, UniProt B6VTE7); test: as §2
T7 sequence (B6VTE7 whole entry): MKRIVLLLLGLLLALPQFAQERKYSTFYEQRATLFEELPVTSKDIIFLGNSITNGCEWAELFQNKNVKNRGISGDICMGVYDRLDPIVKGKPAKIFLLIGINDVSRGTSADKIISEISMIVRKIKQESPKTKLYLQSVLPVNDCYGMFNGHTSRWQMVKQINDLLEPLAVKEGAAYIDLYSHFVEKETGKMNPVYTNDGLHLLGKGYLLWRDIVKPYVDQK

[6] = biological target: T8, SGNH hydrolase-type esterase domain-containing protein (Phocaeicola dorei, UniProt B6W293); test: as §2
T8 sequence (B6W293 whole entry): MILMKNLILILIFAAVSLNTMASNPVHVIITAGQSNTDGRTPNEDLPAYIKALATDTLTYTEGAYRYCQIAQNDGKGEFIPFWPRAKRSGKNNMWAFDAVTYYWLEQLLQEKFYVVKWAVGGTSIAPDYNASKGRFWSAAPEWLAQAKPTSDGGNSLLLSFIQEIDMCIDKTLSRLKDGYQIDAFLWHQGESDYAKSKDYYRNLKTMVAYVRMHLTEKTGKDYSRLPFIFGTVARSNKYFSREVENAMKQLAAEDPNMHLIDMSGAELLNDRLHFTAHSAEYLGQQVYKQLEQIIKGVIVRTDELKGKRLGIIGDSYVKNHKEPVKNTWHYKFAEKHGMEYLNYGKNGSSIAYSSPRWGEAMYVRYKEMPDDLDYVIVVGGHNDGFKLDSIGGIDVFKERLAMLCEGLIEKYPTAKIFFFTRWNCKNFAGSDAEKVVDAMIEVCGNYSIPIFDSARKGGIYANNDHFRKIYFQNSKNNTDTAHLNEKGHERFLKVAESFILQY

Measured: Bacterial Biotransformation

C[C@]12CCC(=O)C=C1[C@@H]1C[C@@H]1[C@H]1[C@@H]3[C@@H]4C[C@@H]4[C@@]4(CCC(=O)O4)[C@@]3(C)CC[C@@H]12 [DROSPIRENONE]
Compound NOT metabolized: Diguanylate cyclase | Flavodoxin | GDSL-like protein [1] | GDSL-like protein [2] | [3] | [4] | [5] | [6]
